How the values were obtained:
[1] = biological target: T1, crude enzyme obtained from pink petals of a carnation (variety: "Beam Cherry") (glycosyltransferase) (Dianthus caryophyllus, UniProt E3W9M2); test: Relative activity of crude carnation petal enzyme on each sugar donor (glycosyl transfer to cyanidin 3-glucoside, HPLC); format: biochemical; conditions: crude enzyme 61 μg, cyanidin β-glucoside 200 μM, sugar donor 500 μM, citric acid buffer pH 5.6, 30° C., 15 minutes, HPLC area of cyanidin 3,5-O-β diglucoside
T1 construct: Thus, a crude enzyme liquid was obtained; from tissue; host or cells: pink petals of carnation, variety Beam Cherry (ammonium sulfate precipitate, desalted)
T1 sequence (E3W9M2 31-502): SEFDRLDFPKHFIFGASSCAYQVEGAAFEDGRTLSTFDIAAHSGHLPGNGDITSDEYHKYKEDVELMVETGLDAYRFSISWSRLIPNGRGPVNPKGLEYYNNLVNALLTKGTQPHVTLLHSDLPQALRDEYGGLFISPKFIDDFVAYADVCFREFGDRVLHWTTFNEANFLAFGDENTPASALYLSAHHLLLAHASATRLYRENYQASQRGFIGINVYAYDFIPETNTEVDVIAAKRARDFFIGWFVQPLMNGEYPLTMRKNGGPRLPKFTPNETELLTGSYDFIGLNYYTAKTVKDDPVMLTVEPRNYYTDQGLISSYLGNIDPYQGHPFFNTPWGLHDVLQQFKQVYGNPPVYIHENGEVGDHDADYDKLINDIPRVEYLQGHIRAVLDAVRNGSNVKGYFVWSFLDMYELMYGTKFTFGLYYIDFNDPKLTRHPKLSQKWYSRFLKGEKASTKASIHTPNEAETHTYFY
Protocol: An enzyme reaction was carried out at 30° C. for 15 minutes in a reaction solution obtained by adding a citric acid buffer (pH 5.6) to a crude enzyme obtained from pink petals of a carnation (variety: “Beam Cherry”) (61 μg), cyanidin β-glucoside (200 μM), and a sugar donor (1-O-β-vanillyl glucose extracted from a carnation or any of synthesized 1-O-vanillyl glucose (in the α or β form), 1-O-isovanillyl glucose (in the α or β form), and 1-O-galloyl glucose (in the α or β form)) (500 μM) to a final volume of 30 μl. The reaction was terminated by adding a 20% phosphoric acid aqueous solution to the reaction liquid so as to result in a final phosphoric acid concentration of 1%, followed by centrifugation. The obtained supernatant was subjected to separation using an HPLC (Chromolith Speed ROD; 4.6×50 mm; Merck) with a linear gradient (5 minutes) of 18% to 28% liquid B containing eluent A (a 1.5% phosphoric acid aqueous solution) and eluent B (a 90% methanol aqueous solution) (flow rate: 3.0 ml/min; 520 nm), followed by analysis. The relative activity of the enzyme on each sugar donor was calculated based on the HPLC chromatogram area of a reaction product (cyanidin 3,5-O-β diglucoside) at a wavelength of 505 nm.

[2] = biological target: T2, carnation-derived glycosyltransferase (SEQ ID NO: 1), recombinant crude enzyme liquid (Dianthus caryophyllus, UniProt E3W9M2); test: Glycosyl transfer reaction with carnation-derived glycosyltransferase gene expressed in Escherichia coli; format: biochemical; conditions: E. coli crude enzyme liquid, cyanidin-3-O-β-glucoside, pH 5.6, 30° C., 3 hours
T2 construct: the enzyme comprising 502 amino acid residues was translated, followed by amino acid removal via processing; added initiator methionine (one Met placed before the processed N-terminus SEFDRL...) (N); made in house; host or cells: Escherichia coli JM109 (crude lysate supernatant)
T2 sequence (E3W9M2 31-502): T1 sequence (E3W9M2 31-502)
Protocol: The PCR product was ligated to a pTrcHis2-TOPO vector (Invitrogen) using a pTrcHis2-TOPO TA expression Kit (Invitrogen), followed by transformation of the Escherichia coli JM109 strain. DNA was extracted from the transformed Escherichia coli and the DNA nucleotide sequence was analyzed in the above manner. Accordingly, the direction of cDNA introduction and the nonoccurrence of a PCR-induced nucleotide substitution were confirmed.
The transformed Escherichia coli was seeded on an LB medium containing […] ampicillin (5 ml), followed by shake culture at 30° C. for 4 hours. Then, IPTG was added thereto to result in 1 mM, followed by shake culture at 16° C. for 2 hours. The cultured Escherichia coli was harvested via centrifugation at 1,800×g. The medium was removed therefrom. A 0.1 M citric acid buffer (pH 5.6) (150 μl) was added thereto, followed by sufficient mixing. The resultant was repeatedly subjected to ultrasonication on ice 3 times for 10 seconds (output: 4; duty: 70) using a ultrasonic disintegrator (UD-201, TOMY SEIKO Co., Ltd., Tokyo, Japan), followed by centrifugation at 20,000×g. The supernatant was transferred to a new centrifuge tube and designated as a crude enzyme liquid. […]

**Q.** Which results are given for `COc1cc(C(=O)OC2OC(CO)C(O)C(O)C2O)ccc1O` (stereo not drawn)?
**A.** Relative activity of an enzyme on a sugar donor (when synthetic 1-O-β-vanillyl glucose is set as 100) [1]: 100; Relative activity of an enzyme on a sugar donor (when synthetic 1-O-β-vanillyl glucose is set as 100) ([1]; listed as 1-O-β-vanillyl glucose (from carnation)): 97.9; Sugar donor function with recombinant carnation-derived glycosyltransferase (reaction product by HPLC) [2]: Generation of cyanidin 3,5-O-β-diglucoside was confirmed
